Results as given in patent US9464064B2, “HCV helicase inhibitors and methods of use thereof” (University of Kansas, priority 2011, dated 2016).
Read-outs that look alike come from different tables or passages of the source.

Columns and labels:
MBHA DNA substrate = assay: Modified FID assay, SYBR Green I; format: binding; details: for DNA binding (%): SYBR Green I-FID, average (±SD) percent bound at 100 μM; for FID (SG) % Displaced @ 100 μM / EC50: SYBR Green; for EC50: read-out: FID (SG) EC50 (converted)
In short: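 Fluorescent intercalator displacement with SYBR Green I (0.68 μM) in place of ethidium bromide and MBHA DNA at 0.32 μM. Normalized data fit to concentration-response equation; EC50 given as mean ± SD of three independent triplicate titrations.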

[1] = Absorbance and fluorescence properties; format: physicochemical; details: for Absorbance ∈: extinction coefficient
Source text: Most of the compounds isolated from the two yellow dyes were fluorescent, absorbing light around 340 nm, and emitting near 420 nm. Their extinction coefficient and peak absorption wavelengths increased as the length of the benzothiazole oligomer increased. Their relative fluorescence decreased with the length of the benzothiazole chain. None of the compounds absorbed light near either the absorption or emission wavelengths of the Cy5-labeled MBHA substrate, or the wavelengths where the fluorescence of ethidium bromide stained DNA, SYBER green I-stained DNA, NS3-catalyzed peptide cleavage, or ATP hydrolysis were measured.
When directly compared with P4, the semi-synthetic primuline derivatives have a sharper absorbance peak centered near 360 nm, and they emit 3-15 times more light when excited at their absorbance maximum. […] Some compounds, like 12, stained both the cytoplasm and nucleus, but they also stained glass coverslips.

[2] = target: T1, E. coli SSB-Cy5-dT15 complex (Escherichia coli, UniProt P0AGE0); assay: Escherichia coli SSB Cy5-dT15 binding assay (fluorescence polarization); details: for IC50: disruption of Cy5-dT15-SSB complex, read-out: Cy5-dT15-SSB Binding IC50; for inhibition at 100 µM: read-out: SSB % Displaced @ 100 μM; for EC50: read-out: SSB EC50
T1 construct: purchased Promega
T1 sequence (P0AGE0 2-178, one chain of several): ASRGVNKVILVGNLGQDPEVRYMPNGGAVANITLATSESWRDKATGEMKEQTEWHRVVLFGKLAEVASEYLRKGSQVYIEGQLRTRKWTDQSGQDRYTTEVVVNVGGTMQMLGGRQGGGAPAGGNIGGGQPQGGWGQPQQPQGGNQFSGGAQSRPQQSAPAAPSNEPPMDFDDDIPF
In short: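 Fluorescence polarization with 5 nM Cy5-dT15 and 20 nM E. coli SSB in 25 mM MOPS pH 7.5, 1.25 mM MgCl2, BSA, Tween 20, DTT. Screening at 1% DMSO; IC50 runs at 5% DMSO. Excitation 635 nm, parallel and perpendicular emission at 667 nm.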

NS3h_2a(JFH1) = target: T2, NS3h_2a(JFH1) (Hepatitis C virus genotype 2a, UniProt Q99IB8); assay: MBHA, DNA substrate, genotype 2a helicase; format: biochemical, hepatitis C virus genotype 2a(JFH1)
T2 construct: truncated C-terminally His-tagged NS3 proteins lacking the N-terminal protease, called NS3h; His-tag (C); made in house
T2 sequence (Q99IB8 1196-1661): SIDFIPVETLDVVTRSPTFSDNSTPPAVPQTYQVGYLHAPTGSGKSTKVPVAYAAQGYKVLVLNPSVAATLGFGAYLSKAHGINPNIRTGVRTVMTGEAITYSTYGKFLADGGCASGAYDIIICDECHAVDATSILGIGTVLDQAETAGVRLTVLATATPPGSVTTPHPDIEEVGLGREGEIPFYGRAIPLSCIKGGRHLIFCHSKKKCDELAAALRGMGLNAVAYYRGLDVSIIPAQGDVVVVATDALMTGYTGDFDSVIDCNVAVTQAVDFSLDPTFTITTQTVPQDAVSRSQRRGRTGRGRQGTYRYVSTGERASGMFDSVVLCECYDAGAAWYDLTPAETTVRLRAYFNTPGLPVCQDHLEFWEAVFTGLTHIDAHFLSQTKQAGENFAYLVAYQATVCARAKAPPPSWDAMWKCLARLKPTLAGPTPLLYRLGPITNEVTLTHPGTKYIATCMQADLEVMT
In short: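 Inhibition of DNA unwinding by C-terminally His-tagged recombinant NS3 helicase domain (no protease) from HCV genotype 2a JFH1 strain, measured by molecular beacon-based helicase assay (MBHA).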

Huh-7.5 cells = assay: Cell viability assay ([…]-GLO); format: cell-based, human; details: for Cell viability (% viable): 10 μM compound, triplicate, average ± SD
In short: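 Huh-7.5 cells exposed to compound for 72 hours, washed, then lysed in a 1:1 mix of growth medium and […]-GLO reagent. After 30 minutes at 23° C., luminescence was read for 1 second as a measure of viability.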

[3] = DNA-based MBHA, genotype 2a(JFH1), read-out: DNA Helicase NS3h_2a IC50 (μM) ± SD
[4] = genotype 2a (JFH1), read-out: Target Potency MBHA (IC50 avg., μM) 2a (JFH1) (converted)

Compound | DNA binding (%) (MBHA DNA substrate) | FID (SG) % Displaced @ 100 μM (MBHA DNA substrate) [%] | EC50 (MBHA DNA substrate) [µM] | Absorbance λmax [1] [nm] | Fluorescence Emmax [1] [nm] | Fluorescence RFU@ 10 μM [1] [RFU] | Absorbance ∈ [1] | IC50 [2] [µM] | inhibition at 100 µM [2] [%] | EC50 [2] [µM] | IC50 (NS3h_2a(JFH1); [3]) [µM] | IC50 (NS3h_2a(JFH1); [4]) [µM] | Cell Viability (% @ 10 μM) (Huh-7.5 cells) [%] | Cell viability (% viable) (Huh-7.5 cells) [%] | toxicity at highest concentration tested (Huh-7.5 cells; 50 μM)
Cc1ccc2nc(-c3ccc4nc(-c5ccc(NC(=O)c6ccc(C(C)(C)C)cc6)cc5)sc4c3)sc2c1S(=O)(=O)O [Compound 13, 2′-(4-(4-(tert-butyl)benzamido)phenyl)-6-methyl-[2,6′-bibenzo[d]thiazole]-7-sulfonic acid] | 72 ± 19 | 72 ± 19 | 16 ± 6 | 356 | 502 | 164 | 37,150 M^−1cm^−1 | 32 ± 7 | 80 | 32 ± 7 | 5 ± 0.7 | 5 ± 0.7 | 87 ± 4 | 87 ± 4 | –
Cc1ccc2nc(-c3ccc4nc(-c5ccc(NC(=O)c6ccc(Br)cc6)cc5)sc4c3)sc2c1S(=O)(=O)O [Compound 15, 2′-(4-(4-bromobenzamido)phenyl)-6-methyl-[2,6′-bibenzo[d]thiazole]-7-sulfonic acid] | 70 ± 9 | 70 ± 9 | 30 ± 13 | 356 | 497 | 209 | 51,600 M^−1cm^−1 | 27 ± 6 | 91 | 27 ± 6 | 7 ± 3.3 | 7.4 ± 3 | 113 ± 5 | 113 ± 5 | –
Cc1ccc2nc(-c3ccc4nc(-c5ccc(NC(=O)c6cccc(Cl)c6)cc5)sc4c3)sc2c1S(=O)(=O)O [Compound 17, 2′-(4-(3-chlorobenzamido)phenyl)-6-methyl-[2,6′-bibenzo[d]thiazole]-7-sulfonic acid] | 41 ± 11 | 41 ± 11 | > 100 | 356 | 502 | 215 | 59,500 M^−1cm^−1 | 201 ± 119 | 47 | > 100 | 4 ± 0.5 | 3.9 ± 1 | 112 ± 4 | 112 ± 4 | –
Cc1ccc2nc(-c3ccc4nc(-c5ccc(NC(=O)c6ccc(Cl)c(Cl)c6)cc5)sc4c3)sc2c1S(=O)(=O)O [Compound 18, 2′-(4-(3,4-dichlorobenzamido)phenyl)-6-methyl-[2,6′-bibenzo[d]thiazole]-7-sulfonic acid] | 67 ± 12 | 67 ± 12 | 30 ± 32 | 356 | 501 | 203 | 44,000 M^−1cm^−1 | 128 ± 57 | 53 | > 100 | – | 4.5 ± 1 | 114 ± 7 | 114 ± 7 | –
Cc1ccc2nc(-c3ccc4nc(-c5ccc(NC(=O)c6cc(C(F)(F)F)cc(C(F)(F)F)c6)cc5)sc4c3)sc2c1S(=O)(=O)O [Compound 24, 2′-(4-(3,5-bis(trifluoromethyl)benzamido)phenyl)-6-methyl-[2,6′-bibenzo[d]thiazole]-7-sulfonic acid] | 43 ± 13 | 43 ± 13 | 86 ± 210 | 355 | 497 | 121 | 45,650 M^−1cm^−1 | 36 ± 7 | 73 | 36 ± 7 | 29 ± 5.2 | 28.7 ± 5 | 122 ± 5 | 122 ± 5 | not toxic
Cc1ccc2nc(-c3ccc4nc(-c5ccc(NC(=O)c6cc(C(F)(F)F)ccc6F)cc5)sc4c3)sc2c1S(=O)(=O)O [Compound 25, 2′-(4-(2-fluoro-5-(trifluoromethyl)benzamido)phenyl)-6-methyl-[2,6′-bibenzo[d]thiazole]-7-sulfonic acid] | 35 ± 26 | 35 ± 26 | > 100 | 355 | 497 | 159 | 41,750 M^−1cm^−1 | 12 ± 8 | 69 | 12 ± 8 | 7 ± 0.9 | 6.7 ± 1 | 132 ± 14 | 132 ± 14 | –
Cc1ccc2nc(-c3ccc4nc(-c5ccc(NC(=O)c6ccc7ccccc7c6)cc5)sc4c3)sc2c1S(=O)(=O)O [Compound 33, 2′-(4-(2-naphthamido)phenyl)-6-methyl-[2,6′-bibenzo[d]thiazole]-7-sulfonic acid] | 64 ± 7 | 63 ± 11 | 25 | 359 | 496 | 236 | 63,450 M^−1cm^−1 | 28 ± 9 | 78 | 28 | 2 ± 0.6 | 4.4 | 99 ± 11 | – | –
Cc1ccc2nc(-c3ccc4nc(-c5ccc(NC(=O)c6ccc7nc(-c8ccc(N)cc8)sc7c6)cc5)sc4c3)sc2c1S(=O)(=O)O [Compound 35, 2′-(4-(2-(4-aminophenyl)benzo[d]thiazole-6-carboxamido)phenyl)-6-methyl-[2,6′-bibenzo[d]thiazole]-7-sulfonic acid] | 59 ± 4 | 59 ± 4 | 68 | 361 | 532 | 2 | 42,000 M^−1cm^−1 | 3 ± 1 | 95 | – | 3 ± 1.2 | 3.5 | 85 ± 2 | 85 ± 2 | –
